According to patent publication US11324787B2, “Analytical methods and arrays for use in the same” (SENZAGEN AB, priority 2017, dated 2022):
Read-outs that look alike come from different tables or passages of the source.

Assays:
[1] = cited from earlier work; for binary class: sens / non-sens
[2] = cited from earlier work; for HP: human potency; for binary class (HP*): based on human potency [41] where available, otherwise according to CLP; for Human potency: class 1 representing highest potency, 6 representing non-sensitizers
[3] = tested on: myeloid cell line derived from MUTZ-3; test: GARD binary classification (SVM on GARD prediction signature, 200 transcripts)
[4] = Table 9, chemicals training set
[5] = chemicals of random forest training and test set
[6] = CLP annotation of 37 novel chemicals
[7] = Table 8 chemical list, GARD SVM decision value

In the case of `O=[N+]([O-])c1ccc(Cl)c([N+](=O)[O-])c1` [2,4-dinitrochlorobenzene], the CLP ([1]; 11 benchmark chemicals) is given as 1A, the binary class ([1]; 11 benchmark chemicals) is given as “sens” and the CLP [1, 4] is given as 1A. For the same compound, the CLP [1, 5] was 1A, the binary class [1, 5] was “sens” and the HP ([2]; 11 benchmark chemicals) was 1. For the same compound, the HP [2, 5] was 1.

In the case of `O=[N+]([O-])c1ccc(F)c([N+](=O)[O-])c1` [2,4-dinitrofluorobenzene, 2,4-Dinitrofluorobenzene], the CLP [1, 6] is listed as 1A, the CLP [1, 4] is listed as 1A and the CLP [1, 5] is listed as 1A. The binary class [1, 5] was “sens”, the “binary class (HP*)” value [2] was “S (HP 1-4 = S)” and the GARD binary prediction ([3]; SVM, median calibrated decision value of replicates >0 = sensitizer) was “S”.

In the case of `Nc1ccccc1O` [2-aminophenol], the HP ([2]; 11 benchmark chemicals) is given as 2, the Human potency [2] is given as 2 and the HP [2, 5] is given as 2. The “SVM DV” value [3, 7] was 5.98.

In the case of `C=CC(=O)OCCO` [2-hydroxyethyl acrylate], the “SVM DV” value [3, 7] is reported as 8.87.

In the case of `Sc1nc2ccccc2s1` [2-mercaptobenzothiazole], the CLP [1, 4] is listed as 1A, the CLP [1, 5] is listed as 1A and the binary class [1, 5] is listed as “sens”. The Human potency [2] was 3, the HP [2, 5] was 3 and the “SVM DV” value [3, 7] was 2.52.

In the case of `O=[N+]([O-])c1ccc(CBr)cc1` [4-nitrobenzylbromide], the CLP [1, 4] is listed as 1A, the CLP [1, 5] is listed as 1A and the binary class [1, 5] is listed as “sens”.

For `OC/C=C/c1ccccc1` [Cinnamic alcohol], the Human potency [2] is listed as 3 and the “SVM DV” value [3, 7] is listed as 2.94.

For `Nc1ccc(C(=O)O)cc1` [PABA], the Human potency [2] is listed as 5 and the “SVM DV” value [3, 7] is listed as −1.04.

In the case of `Nc1ccc(N)cc1` [PPD], the Human potency [2] is given as 1 and the “SVM DV” value [3, 7] is given as 5.32.

For `CC1(C)S[C@@H]2[C@H](NC(=O)Cc3ccccc3)C(=O)N2[C@H]1C(=O)O` [Penicillin G], the Human potency [2] is listed as 3 and the “SVM DV” value [3, 7] is listed as 1.06.

In the case of `CC(O)CO` (stereo not drawn) [Propylene glycol], the Human potency [2] is listed as 5 and the “SVM DV” value [3, 7] is listed as −1.18.

For `CCCCCCCCCCCCOS(=O)(=O)[O-].[Na+]` [Sodium lauryl sulfate], the “SVM DV” value [3, 7] was −1.52.

In the case of `CCCCCCCC/C=C\CCCCCCCC(=O)OCCOCC(OCCO)C1OCC(OCCO)C1OCCO` (stereo not drawn) [Tween 80], the CLP [1, 4] is listed as “no cat”, the CLP [1, 5] is listed as “no cat” and the binary class [1, 5] is listed as “non-sens”. The Human potency [2] was 6, the HP [2, 5] was 6 and the “SVM DV” value [3, 7] was −1.39.

In the case of `O=Cc1ccccc1` [benzaldehyde], the “SVM DV” value [3, 7] is reported as −2.13.

For `Clc1ccccc1` [chlorobenzene], the “SVM DV” value [3, 7] was −1.63.

In the case of `OCC=Cc1ccccc1` [cinnamyl alcohol], the CLP [1, 4] is given as 1B, the CLP [1, 5] is given as 1B and the binary class [1, 5] is given as “sens”. The HP [2, 5] was 3.

For `C[S+](C)[O-]` [dimethyl sulfoxide], the CLP [1, 5] is listed as “no cat”, the binary class [1, 5] is listed as “non-sens” and the HP [2, 5] is listed as 6.

In the case of `O=c1c(-c2ccccc2)c1-c1ccccc1` [diphenylcyclopropenone], the CLP [1, 4] is listed as 1A, the CLP [1, 5] is listed as 1A and the binary class [1, 5] is listed as “sens”. The HP [2, 5] was 1.

For `NCCN` [ethylenediamine], the “SVM DV” value [3, 7] was 1.12.

In the case of `C=CCc1ccc(O)c(OC)c1` [eugenol], the “SVM DV” value [3, 7] is reported as 1.02.

With `C=O` [formaldehyde] the “SVM DV” value [3] was 2.32.

In the case of `CC(C)=CCC/C(C)=C/CO` [geraniol], the “SVM DV” value [3, 7] is reported as 1.76.

For `OCC(O)CO` [glycerol], the Human potency [2] is given as 6, the HP [2, 5] is given as 6 and the “SVM DV” value [3, 7] is given as −2.05.

With `O=CC=O` [glyoxal] the “SVM DV” value [3, 7] was 1.08.

For `CCCCCC` [hexane], the CLP [1, 4] is given as “no cat”, the CLP [1, 5] is given as “no cat” and the binary class [1, 5] is given as “non-sens”. The HP [2, 5] was 6.

In the case of `CCCCCCC(C=O)=Cc1ccccc1` [hexylcinnamic aldehyde], the CLP ([1]; 11 benchmark chemicals) is listed as 1B, the binary class ([1]; 11 benchmark chemicals) is listed as “sens” and the CLP [1, 4] is listed as 1B. The CLP [1, 5] was 1B, the binary class [1, 5] was “sens” and the HP ([2]; 11 benchmark chemicals) was 5. The Human potency [2] was 5, the HP [2, 5] was 5 and the “SVM DV” value [3, 7] was 1.24.

For `Oc1ccc(O)cc1` [hydroquinone], the CLP [1, 4] is given as 1A, the CLP [1, 5] is given as 1A and the binary class [1, 5] is given as “sens”. For the same compound, the HP [2, 5] was 3.

For `CC(CC=O)CCCC(C)(C)O` (stereo not drawn) [hydroxycitronellal], the CLP [1, 4] is given as 1B, the CLP [1, 5] is given as 1B and the binary class [1, 5] is given as “sens”. For the same compound, the HP [2, 5] was 4.

In the case of `CC=Cc1ccc(O)c(OC)c1` [isoeugenol], the CLP [1, 4] is given as 1A, the CLP [1, 5] is given as 1A and the binary class [1, 5] is given as “sens”. For the same compound, the HP [2, 5] was 2.

For `CC(C)O` [isopropanol], the CLP [1, 4] is given as “no cat”, the CLP [1, 5] is given as “no cat” and the binary class [1, 5] is given as “non-sens”. For the same compound, the Human potency [2] was 5, the HP [2, 5] was 5 and the “SVM DV” value [3, 7] was −1.37.

For `NC[C@H]1O[C@H](O[C@H]2[C@H](O)[C@@H](O[C@H]3O[C@H](CO)[C@@H](O)[C@H](N)[C@H]3O)[C@H](N)C[C@@H]2N)[C@H](O)[C@@H](O)[C@@H]1O` [kanamycin A], the CLP [1, 4] is listed as “no cat”, the CLP [1, 5] is listed as “no cat” and the binary class [1, 5] is listed as “non-sens”. The “binary class (HP*)” value [2] was “NS (5-6 = NS)”.

For `CC(O)C(=O)O` (stereo not drawn) [lactic acid], the HP [2, 5] is listed as 6 and the “SVM DV” value [3, 7] is listed as −2.38.

For `CCCCCCCCCCCCOC(=O)c1cc(O)c(O)c(O)c1` [lauryl gallate], the CLP [1, 4] is listed as 1A, the CLP [1, 5] is listed as 1A and the binary class [1, 5] is listed as “sens”. For the same compound, the HP [2, 5] was 2.

In the case of `CC(C=O)Cc1ccc(C(C)(C)C)cc1` (stereo not drawn) [lilial], the CLP [1, 6] is given as 1B, the CLP [1, 4] is given as 1B and the CLP [1, 5] is given as 1B. The binary class [1, 5] was “sens” and the “binary class (HP*)” value [2] was “S (HP 1-4 = S)”.

For `COC(=O)c1ccccc1O` [methyl salicylate], the CLP [1, 4] is given as “no cat”, the CLP [1, 5] is given as “no cat” and the binary class [1, 5] is given as “non-sens”. The Human potency [2] was 5, the HP [2, 5] was 5 and the “SVM DV” value [3, 7] was −1.53.

For `N#CCCC(Br)(C#N)CBr` (stereo not drawn) [methyldibromo glutaronitrile], the CLP [1, 4] is listed as 1A, the CLP [1, 5] is listed as 1A and the binary class [1, 5] is listed as “sens”. The HP [2, 5] was 2.

In the case of `CCCCCCCC(=O)O` [octanoic acid], the CLP [1, 4] is listed as “no cat”, the CLP [1, 5] is listed as “no cat” and the binary class [1, 5] is listed as “non-sens”. The Human potency [2] was 6, the HP [2, 5] was 6 and the “SVM DV” value [3, 7] was −1.19.

For `O=C(O)c1ccc(O)cc1` [p-hydroxybenzoic acid], the CLP [1, 4] is listed as “no cat”, the CLP [1, 5] is listed as “no cat” and the binary class [1, 5] is listed as “non-sens”.

For `Nc1ccc(N)cc1` [p-phenylenediamine], the CLP ([1]; 11 benchmark chemicals) is listed as 1A, the binary class ([1]; 11 benchmark chemicals) is listed as “sens” and the CLP [1, 4] is listed as 1A. The CLP [1, 5] was 1A and the binary class [1, 5] was “sens”.

With `Oc1ccccc1` [phenol] the “SVM DV” value [3] was −1.08.

In the case of `O=C(Oc1ccccc1)c1ccccc1` [phenyl benzoate], the CLP [1, 4] is given as 1B, the CLP [1, 5] is given as 1B and the binary class [1, 5] is given as “sens”. For the same compound, the HP [2, 5] was 3.

In the case of `O=CCc1ccccc1` [phenylacetaldehyde], the CLP [1, 4] is given as 1B, the CLP [1, 5] is given as 1B and the binary class [1, 5] is given as “sens”.

For `[K+].[K+].[O]=[Cr](=[O])([O-])[O][Cr](=[O])(=[O])[O-]` [potassium dichromate], the CLP [1, 4] is listed as 1A, the CLP [1, 5] is listed as 1A and the binary class [1, 5] is listed as “sens”.

For `CCCOC(=O)c1cc(O)c(O)c(O)c1` [propyl gal late], the CLP ([1]; Table 10, chemicals test set 1) is given as 1A.

In the case of `Oc1cccc(O)c1` [resorcinol], the HP ([2]; 11 benchmark chemicals) is given as 4, the Human potency [2] is given as 4 and the HP [2, 5] is given as 4. For the same compound, the “SVM DV” value [3, 7] was 1.03.

In the case of `O=C(O)c1ccccc1O` [salicylic acid], the Human potency [2] is listed as 6, the HP [2, 5] is listed as 6 and the “SVM DV” value [3, 7] is listed as −1.41.

For chloroanilin, the CLP [1, 4] is listed as 1B, the CLP [1, 5] is listed as 1B and the binary class [1, 5] is listed as “sens”.

In the case of xylene, the HP [2, 5] is given as 6 and the “Human potency [41]” value ([2]; test set) is given as 6.
